From patent publication US11542240B2, “STK19 inhibitors for treatment of cancer” (TRUSTEES OF BOSTON UNIVERSITY, priority 2018, dated 2023)
Read-outs that look alike come from different tables or passages of the source.

Key:
Assay in all cases: biochemical
Type in all cases: binding
[1] = target: panel of 468 diverse kinases (Homo sapiens, UniProt O15264); details: p38-delta; 1000 nM; read-out: Percent Control
[2] = target: panel of 468 diverse kinases (Homo sapiens, UniProt O75747); details: PIK3C2G; 1000 nM; read-out: Percent Control
[3] = target: panel of 468 diverse kinases (Homo sapiens, UniProt O75914); details: PAK3; 1000 nM; read-out: Percent Control
[4] = target: panel of 468 diverse kinases (Homo sapiens, UniProt O76039); details: CDKL5; 1000 nM; read-out: Percent Control
[5] = target: panel of 468 diverse kinases (Homo sapiens, UniProt P00519, H396P); details: 1000 nM, read-out: Percent Control
[6] = target: panel of 468 diverse kinases (Homo sapiens, UniProt P04626); details: ERBB2; 1000 nM; read-out: Percent Control
[7] = target: panel of 468 diverse kinases (Homo sapiens, UniProt P06213); details: INSR; 1000 nM; read-out: Percent Control
Chain of panel of 468 diverse kinases (Homo sapiens, UniProt P06213) (P06213 28-758 limits assumed): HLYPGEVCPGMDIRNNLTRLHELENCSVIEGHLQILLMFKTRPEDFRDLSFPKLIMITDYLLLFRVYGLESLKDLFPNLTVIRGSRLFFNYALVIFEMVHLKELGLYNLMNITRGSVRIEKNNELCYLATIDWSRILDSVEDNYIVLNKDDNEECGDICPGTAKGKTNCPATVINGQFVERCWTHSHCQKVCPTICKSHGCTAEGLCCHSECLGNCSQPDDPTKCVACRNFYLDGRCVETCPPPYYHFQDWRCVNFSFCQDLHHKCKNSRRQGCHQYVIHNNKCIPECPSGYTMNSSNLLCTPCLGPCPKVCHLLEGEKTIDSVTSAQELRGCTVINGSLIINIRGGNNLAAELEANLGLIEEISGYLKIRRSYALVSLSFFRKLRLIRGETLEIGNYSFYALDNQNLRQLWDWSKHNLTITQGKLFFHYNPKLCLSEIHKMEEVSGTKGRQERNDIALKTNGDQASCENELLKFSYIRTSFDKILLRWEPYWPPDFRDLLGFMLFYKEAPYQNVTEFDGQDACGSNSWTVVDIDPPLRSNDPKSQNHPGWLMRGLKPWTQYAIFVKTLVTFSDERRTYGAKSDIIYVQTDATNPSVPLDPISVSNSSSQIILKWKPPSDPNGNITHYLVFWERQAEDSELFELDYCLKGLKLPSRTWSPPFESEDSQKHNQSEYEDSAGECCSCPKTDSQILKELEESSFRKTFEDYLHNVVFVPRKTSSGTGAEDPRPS
Chain of panel of 468 diverse kinases (Homo sapiens, UniProt P06213) (P06213 763-1382 limits assumed): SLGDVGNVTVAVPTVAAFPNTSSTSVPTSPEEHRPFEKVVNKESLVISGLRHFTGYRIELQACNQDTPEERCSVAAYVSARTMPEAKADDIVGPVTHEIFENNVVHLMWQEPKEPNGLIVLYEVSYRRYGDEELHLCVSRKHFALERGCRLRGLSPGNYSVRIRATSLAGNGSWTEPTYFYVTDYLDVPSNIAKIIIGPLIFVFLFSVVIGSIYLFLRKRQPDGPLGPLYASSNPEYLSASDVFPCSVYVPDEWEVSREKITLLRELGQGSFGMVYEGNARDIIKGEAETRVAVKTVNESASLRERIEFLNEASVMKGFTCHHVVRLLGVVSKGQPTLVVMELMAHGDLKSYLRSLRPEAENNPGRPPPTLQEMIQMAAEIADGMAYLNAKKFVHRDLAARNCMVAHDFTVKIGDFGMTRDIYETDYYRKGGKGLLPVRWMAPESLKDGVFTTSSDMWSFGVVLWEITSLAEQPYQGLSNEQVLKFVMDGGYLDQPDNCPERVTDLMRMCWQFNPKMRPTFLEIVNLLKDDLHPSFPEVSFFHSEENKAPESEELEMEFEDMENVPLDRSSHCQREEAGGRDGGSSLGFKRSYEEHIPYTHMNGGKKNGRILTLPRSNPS

[8] = target: panel of 468 diverse kinases (Homo sapiens, UniProt P07947); details: YES; 1000 nM; read-out: Percent Control
Chain of panel of 468 diverse kinases (Homo sapiens, UniProt P07947) (P07947 2-543 limits assumed): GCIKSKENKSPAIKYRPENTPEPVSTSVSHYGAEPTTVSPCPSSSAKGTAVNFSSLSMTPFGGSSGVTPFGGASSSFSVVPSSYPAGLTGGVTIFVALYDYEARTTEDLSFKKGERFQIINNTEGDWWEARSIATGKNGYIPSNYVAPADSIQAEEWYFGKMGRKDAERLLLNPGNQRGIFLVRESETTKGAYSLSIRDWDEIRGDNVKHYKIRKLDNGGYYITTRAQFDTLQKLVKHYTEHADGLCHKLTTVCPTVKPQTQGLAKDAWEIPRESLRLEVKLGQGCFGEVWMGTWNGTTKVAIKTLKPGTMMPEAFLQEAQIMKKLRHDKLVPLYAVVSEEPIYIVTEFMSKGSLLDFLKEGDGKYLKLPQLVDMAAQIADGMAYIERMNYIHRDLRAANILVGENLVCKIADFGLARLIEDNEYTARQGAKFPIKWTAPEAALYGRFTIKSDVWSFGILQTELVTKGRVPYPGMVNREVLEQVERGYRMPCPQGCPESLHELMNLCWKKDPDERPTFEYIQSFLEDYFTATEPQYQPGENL

[9] = target: panel of 468 diverse kinases (Homo sapiens, UniProt P0C264); details: SgK110; 1000 nM; read-out: Percent Control
[10] = target: panel of 468 diverse kinases (Homo sapiens, UniProt P11309); details: PIM1; 1000 nM; read-out: Percent Control
[11] = target: panel of 468 diverse kinases (Homo sapiens, UniProt P17612); details: PKAC-alpha; 1000 nM; read-out: Percent Control
[12] = target: panel of 468 diverse kinases (Homo sapiens, UniProt P27037); details: ACVR2A; 1000 nM; read-out: Percent Control
[13] = target: panel of 468 diverse kinases (Homo sapiens, UniProt P35916); details: FLT4; 1000 nM; read-out: Percent Control
Chain of panel of 468 diverse kinases (Homo sapiens, UniProt P35916) (P35916 25-1363 limits assumed): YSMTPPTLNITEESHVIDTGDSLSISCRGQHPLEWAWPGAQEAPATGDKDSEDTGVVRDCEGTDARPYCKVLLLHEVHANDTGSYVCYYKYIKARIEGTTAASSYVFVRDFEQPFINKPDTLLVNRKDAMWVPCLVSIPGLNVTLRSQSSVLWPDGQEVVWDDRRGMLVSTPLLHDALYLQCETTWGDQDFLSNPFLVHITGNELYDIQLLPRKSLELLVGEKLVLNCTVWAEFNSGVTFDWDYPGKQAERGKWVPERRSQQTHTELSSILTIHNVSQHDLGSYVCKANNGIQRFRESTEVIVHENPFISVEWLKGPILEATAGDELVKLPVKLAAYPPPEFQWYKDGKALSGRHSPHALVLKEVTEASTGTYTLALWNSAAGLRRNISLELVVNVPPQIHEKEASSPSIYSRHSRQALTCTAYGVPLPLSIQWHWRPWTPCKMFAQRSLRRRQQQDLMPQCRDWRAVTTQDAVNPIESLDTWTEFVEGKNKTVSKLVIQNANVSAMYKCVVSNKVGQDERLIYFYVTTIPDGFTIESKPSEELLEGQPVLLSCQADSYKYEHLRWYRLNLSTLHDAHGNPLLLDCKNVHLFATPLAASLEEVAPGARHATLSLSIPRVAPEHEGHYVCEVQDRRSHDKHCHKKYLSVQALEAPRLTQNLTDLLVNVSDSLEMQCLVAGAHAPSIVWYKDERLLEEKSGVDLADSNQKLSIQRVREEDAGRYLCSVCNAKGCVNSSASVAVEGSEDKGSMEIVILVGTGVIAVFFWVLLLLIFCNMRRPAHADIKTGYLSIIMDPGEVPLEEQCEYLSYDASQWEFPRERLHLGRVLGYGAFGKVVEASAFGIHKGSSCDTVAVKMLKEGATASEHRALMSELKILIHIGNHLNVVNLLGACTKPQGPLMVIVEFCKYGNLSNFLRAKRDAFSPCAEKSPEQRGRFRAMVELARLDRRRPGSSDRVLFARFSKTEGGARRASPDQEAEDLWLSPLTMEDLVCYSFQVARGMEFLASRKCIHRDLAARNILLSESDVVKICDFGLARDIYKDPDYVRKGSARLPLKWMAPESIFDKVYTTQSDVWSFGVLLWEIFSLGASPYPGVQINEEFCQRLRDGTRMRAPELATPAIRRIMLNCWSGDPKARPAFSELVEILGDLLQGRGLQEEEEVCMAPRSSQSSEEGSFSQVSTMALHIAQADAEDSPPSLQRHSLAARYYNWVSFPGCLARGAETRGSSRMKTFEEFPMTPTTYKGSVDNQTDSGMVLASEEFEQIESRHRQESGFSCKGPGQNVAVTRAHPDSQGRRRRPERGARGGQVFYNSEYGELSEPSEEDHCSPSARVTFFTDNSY

[14] = target: panel of 468 diverse kinases (Homo sapiens, UniProt P42336, C420R); details: PIK3CA(C420R); 1000 nM; read-out: Percent Control
[15] = target: panel of 468 diverse kinases (Homo sapiens, UniProt P42336, E545K); details: PIK3CA(E545K); 1000 nM; read-out: Percent Control
[16] = target: panel of 468 diverse kinases (Homo sapiens, UniProt P42681); details: TXK; 1000 nM; read-out: Percent Control
[17] = target: panel of 468 diverse kinases (Homo sapiens, UniProt P57059); details: SIK; 1000 nM; read-out: Percent Control
[18] = target: panel of 468 diverse kinases (Homo sapiens, UniProt Q07912); details: TNK2; 1000 nM; read-out: Percent Control
[19] = target: panel of 468 diverse kinases (Homo sapiens, UniProt Q13464); details: ROCK1; 1000 nM; read-out: Percent Control
[20] = target: panel of 468 diverse kinases (Homo sapiens, UniProt Q15349); details: 1000 nM, read-out: Percent Control
[21] = target: panel of 468 diverse kinases (Homo sapiens, UniProt Q15418); details: 1000 nM, read-out: Percent Control
[22] = target: panel of 468 diverse kinases (Homo sapiens, UniProt Q16659); details: ERK3; 1000 nM; read-out: Percent Control
[23] = target: panel of 468 diverse kinases (Homo sapiens, UniProt Q8N4C8); details: MINK; 1000 nM; read-out: Percent Control
[24] = target: panel of 468 diverse kinases (Homo sapiens, UniProt Q8N568); details: DCAMKL2; 1000 nM; read-out: Percent Control
[25] = target: panel of 468 diverse kinases (Homo sapiens, UniProt Q96J92); details: WNK4; 1000 nM; read-out: Percent Control
[26] = target: panel of 468 diverse kinases (Homo sapiens, UniProt Q99759); details: MAP3K3; 1000 nM; read-out: Percent Control
[27] = target: panel of 468 diverse kinases (Homo sapiens, UniProt Q9BZL6); details: PRKD2; 1000 nM; read-out: Percent Control
[28] = target: panel of 468 diverse kinases (Homo sapiens, UniProt Q9UM73); details: ALK; 1000 nM; read-out: Percent Control
Chain of panel of 468 diverse kinases (Homo sapiens, UniProt Q9UM73) (Q9UM73 19-1620 limits assumed): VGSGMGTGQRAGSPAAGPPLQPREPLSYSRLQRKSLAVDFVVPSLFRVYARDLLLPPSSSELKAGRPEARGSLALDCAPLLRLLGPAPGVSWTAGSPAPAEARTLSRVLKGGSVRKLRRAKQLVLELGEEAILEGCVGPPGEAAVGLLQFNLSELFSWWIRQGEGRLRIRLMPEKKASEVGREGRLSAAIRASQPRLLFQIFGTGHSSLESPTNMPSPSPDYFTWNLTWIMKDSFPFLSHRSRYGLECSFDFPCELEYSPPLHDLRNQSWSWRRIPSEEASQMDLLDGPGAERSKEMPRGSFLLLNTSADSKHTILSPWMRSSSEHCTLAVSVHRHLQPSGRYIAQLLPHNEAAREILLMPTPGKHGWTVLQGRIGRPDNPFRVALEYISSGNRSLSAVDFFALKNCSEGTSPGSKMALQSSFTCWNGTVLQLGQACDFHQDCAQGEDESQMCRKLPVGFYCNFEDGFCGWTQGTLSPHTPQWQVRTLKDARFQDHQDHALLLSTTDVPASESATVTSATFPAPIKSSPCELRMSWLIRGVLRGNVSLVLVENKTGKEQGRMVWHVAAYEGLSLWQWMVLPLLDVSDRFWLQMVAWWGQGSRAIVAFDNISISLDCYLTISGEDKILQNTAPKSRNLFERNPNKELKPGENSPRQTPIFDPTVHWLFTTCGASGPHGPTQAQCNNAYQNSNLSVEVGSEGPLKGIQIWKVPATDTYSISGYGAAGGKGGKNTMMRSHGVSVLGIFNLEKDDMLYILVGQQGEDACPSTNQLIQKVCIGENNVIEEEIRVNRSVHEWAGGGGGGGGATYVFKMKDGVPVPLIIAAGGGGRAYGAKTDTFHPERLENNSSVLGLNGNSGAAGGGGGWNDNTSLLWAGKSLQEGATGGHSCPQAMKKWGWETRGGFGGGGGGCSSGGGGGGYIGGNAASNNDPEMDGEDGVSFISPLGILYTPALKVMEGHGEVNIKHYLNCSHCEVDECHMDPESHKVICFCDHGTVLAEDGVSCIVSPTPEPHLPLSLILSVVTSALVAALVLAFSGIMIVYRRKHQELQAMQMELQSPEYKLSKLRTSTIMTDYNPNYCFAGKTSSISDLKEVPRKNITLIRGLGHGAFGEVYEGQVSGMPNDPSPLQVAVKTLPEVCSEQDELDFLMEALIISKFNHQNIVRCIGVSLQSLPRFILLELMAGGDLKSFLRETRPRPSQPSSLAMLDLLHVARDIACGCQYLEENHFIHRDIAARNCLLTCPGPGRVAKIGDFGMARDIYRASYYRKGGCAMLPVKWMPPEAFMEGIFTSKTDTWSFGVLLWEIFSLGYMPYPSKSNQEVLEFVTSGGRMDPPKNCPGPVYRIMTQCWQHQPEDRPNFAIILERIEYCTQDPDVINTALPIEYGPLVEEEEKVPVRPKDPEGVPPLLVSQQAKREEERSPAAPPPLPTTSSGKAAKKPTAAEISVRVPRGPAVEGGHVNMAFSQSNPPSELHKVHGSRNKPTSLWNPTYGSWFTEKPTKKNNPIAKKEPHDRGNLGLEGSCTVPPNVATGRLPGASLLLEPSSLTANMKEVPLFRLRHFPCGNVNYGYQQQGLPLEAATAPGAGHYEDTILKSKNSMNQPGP

[29] = target: panel of 468 diverse kinases (Homo sapiens, UniProt Q9Y2H9); details: MAST1; 1000 nM; read-out: Percent Control
[30] = target: panel of 468 diverse kinases (Homo sapiens, UniProt Q9Y4K4); details: MAP4K5; 1000 nM; read-out: Percent Control

## COc1cc2nc(NC3CC3)nc(NC3CCN(C(C)C)CC3)c2cc1OC [Formula IV]
[1]
  remaining activity at 1 µM: 98%
[2]
  remaining activity at 1 µM: 100%
[3]
  remaining activity at 1 µM: 71%
[4]
  remaining activity at 1 µM: 52%
[5]; ABL1 (H396P)-nonphosphorylated
  remaining activity at 1 µM: 69%
[5]; ABL1(H396P)-phosphorylated
  remaining activity at 1 µM: 68%
[6]
  remaining activity at 1 µM: 100%
[7]
  remaining activity at 1 µM: 57%
[8]
  remaining activity at 1 µM: 100%
[9]
  remaining activity at 1 µM: 97%
[10]
  remaining activity at 1 µM: 90%
[11]
  remaining activity at 1 µM: 85%
[12]
  remaining activity at 1 µM: 100%
[13]
  remaining activity at 1 µM: 80%
[14]
  remaining activity at 1 µM: 91%
[15]
  remaining activity at 1 µM: 48%
[16]
  remaining activity at 1 µM: 98%
[17]
  remaining activity at 1 µM: 81%
[18]
  remaining activity at 1 µM: 100%
[19]
  remaining activity at 1 µM: 45%
[20]; RSK3(Kin.Dom.1-N-terminal)
  remaining activity at 1 µM: 93%
[20]; RSK3(Kin.Dom.2-C-terminal)
  remaining activity at 1 µM: 81%
[21]; RSK1(Kin.Dom.1-N-terminal)
  remaining activity at 1 µM: 93%
[21]; RSK1(Kin.Dom.2-C-terminal)
  remaining activity at 1 µM: 98%
[22]
  remaining activity at 1 µM: 90%
[23]
  remaining activity at 1 µM: 69%
[24]
  remaining activity at 1 µM: 90%
[25]
  remaining activity at 1 µM: 70%
[26]
  remaining activity at 1 µM: 55%
[27]
  remaining activity at 1 µM: 64%
[28]
  remaining activity at 1 µM: 61%
[29]
  remaining activity at 1 µM: 72%
[30]
  remaining activity at 1 µM: 100%
